IC50 data for 26 molecules are collected here from US10294212B2 (CURADEV PHARMA PRIVATE LTD., priority 2013, dated 2019).

Where a name gives a salt, the structure may show the parent alone.

Assay [1] concerns the target IDO1 in HeLa cells (Homo sapiens (Human), UniProt P14902). As to the kind of experiment: HeLa cell based IDO1 assay (IFNγ-induced, KYN in supernatant). The method, then:
HeLa cells were obtained from ATCC and maintained in DMEM supplemented with sodium bicarbonate (2.1 g/L), HEPES (4.1 g/L), L-glutamine (2 mM), non-essential amino acid (84 mg/L) and fetal bovine serum (10% FBS) and maintained at 95% humidity and 5% CO2 in a 37° C. incubator. Unless otherwise stated, all materials were procured from Sigma. Upon incubation with gamma-interferon (IFNγ ), HeLa cells express IDO1, which catalyzes the formation of N-formyl kynurenine from tryptophan present in growth medium. The assay was performed as follows:
Cells were plated in medium (300 μL) at a density of 0.1 million per well of a 48 well plate and hIDO1 was induced by overnight treatment with IFNγ (50 ng/mL) (Peprotech, USA). The following day, cells were washed to remove IFNγ and were incubated with specific concentrations of test compounds (typically 10 μM to 1 nM, final volume 300 μL) in Hanks Balanced Salt Solution (HBSS) containing 80 μM L-tryptophan. Following incubation, supernatant (150 μL) was transferred to a 96 well plate into which 30%TCA (304) was added and the contents further incubated at 65° C. for 15 min to fully convert N-formylkynurenine to kynurenine. The reaction mixture was then centrifuged to remove sediments and the KYN in the supernatant was estimated by UV-visible absorption spectroscopy at 360 nm using a Waters HPLC system fitted with a C-18 column. (Xiangdong Liu et al. Blood 2010, Vol-117, 3520-30; Sono described above).
(§1) Percent inhibition at each concentration of test compounds was determined by estimating the decrease in KYN with reference to the reaction control with 1% DMSO vehicle. Data were analyzed using nonlinear regression to generate IC50 values using Graph Pad Prism® 5.

The target of assay [2] is Human indoleamine 2,3-dioxygenase1 (hIDO1) (Homo sapiens (Human), UniProt P14902). In words: In-vitro IDO1 enzyme assay (conversion of L-tryptophan to KYN). Type of assay: biochemical. The note with it: read-out: IC50 (IDO1) Enz.
Human indoleamine 2,3-dioxygenase1 (hIDO1), sequence (P14902 whole entry): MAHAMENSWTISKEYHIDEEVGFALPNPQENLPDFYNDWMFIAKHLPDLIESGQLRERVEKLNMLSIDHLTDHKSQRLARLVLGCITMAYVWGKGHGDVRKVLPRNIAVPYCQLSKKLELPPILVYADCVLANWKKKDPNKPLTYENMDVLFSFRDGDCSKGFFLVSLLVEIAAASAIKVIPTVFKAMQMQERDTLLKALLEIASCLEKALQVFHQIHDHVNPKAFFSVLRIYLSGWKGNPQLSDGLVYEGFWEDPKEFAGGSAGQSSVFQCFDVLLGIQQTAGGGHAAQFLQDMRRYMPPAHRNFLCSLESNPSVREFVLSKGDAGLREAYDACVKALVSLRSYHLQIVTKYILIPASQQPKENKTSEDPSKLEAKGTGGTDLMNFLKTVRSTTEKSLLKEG
Source text: Human indoleamine 2,3-dioxygenasel (hIDO1) catalyzes the oxidative cleavage of the pyrrole ring of the indole nucleus of tryptophan to yield N-formylkynurenine which can be converted to kynurenine (KYN) by deformylation. hIDO1 with an N-terminal His tag, expressed and purified from E. coli cells was procured from either Enzo LifeScienccs, NY, USA). Unless otherwise stated, all materials were procured from Sigma Aldrich, Mo., USA.
The assay monitoring the conversion of L-tryptophan to KYN was carried out as follows. hIDO1 (10 nM) was incubated with tryptophan (30 μM) in the presence of ascorbic acid (20 mM), methylene blue (10 μM) and catalase (100 μg/mL) in potassium phosphate buffer (50 mM; pH 6.5) at 37C for 30 min. The reaction was terminated with 30% trichloroacetic acid (TCA) and further incubated at 65C for 15 min to fully convert N-formylkynurenine to KYN. The reaction mixture was then centrifuged to remove sediments and the KYN in the supernatant was estimated by UV-visible absorption spectroscopy at 360 nm using a Waters HPLC system fitted with a C-18 column or by LC/MS/MS. See, Sono, 1980, J. Biol. Chem., 255:1339-1345, which is herein incorporated by reference.
as §1

The target of assay [3] is Human TDO (hTDO)-transfected CHO-K1 cells (Homo sapiens (Human), UniProt P48775). In words: CHO-K1 cell based TDO assay. The note with it: hTDO cellular assay. The method, then:
Human TDO (hTDO)-transfected CHO-K1 cells were used to identify test compounds that inhibit TDO activity and reduce Kynurenine production. CHO-K1 cells (ATCC) were cultured in DMEM supplemented with sodium bicarbonate (2.1 g/L), HEPES (4.1 g/L), L-glutamine (2 mM), non-essential amino acid (84 mg/L) and fetal bovine serum (10%) and maintained at 95% humidity and 5% CO2 in a 37° C. incubator. The TDO gene (TDO2) (Accession number NM_005651.1) was purchased from Origene (USA) and stably expressed in CHO-Kl cells using the expression vector pcDNA4/Myc-HisB Hygro (Life Technologies, USA). TDO-expressing clones were identified based on the kynurenine production by the cells. Expanded clones were used for assay as described below. Unless otherwise stated, all materials were procured from Sigma.
hTDO transfected CHO-K1 cells (0.05 million/well) were seeded in a 96-well plate and maintained overnight in DMEM containing 10% FBS (200 μL) at 95% humidity and 5% CO2 in a 37° C. incubator. The following day, cells were washed and incubated with test compounds (typically 31 μM to 10 nM, final volume 150 μL) in Hanks Balanced Salt Solution (HBSS) containing 80 μM L-tryptophan for 2 hours. Supernatant (150 μL) from the cells was treated with 30% TCA ([…]) to precipitate proteins. Supernatants were further incubated at 65° C. for 15 min to convert N-formylkynurenine to kynurenine. KYN in the supernatant was measured by LC/MS/MS using an API4000 mass spectrometer (Applied Biosystems) coupled to a Shimadzu Prominence LC system fitted with a C18 column.
Percent inhibition of the test compounds was determined by measuring the decrease in KYN as compared to the reaction control (DMSO vehicle). IC50 values were calculated using Graph Pad Prism® 5 as described above.

IDO1 in HeLa cells, sequence (P14902 whole entry): as above
Human TDO (hTDO)-transfected CHO-K1 cells, sequence (P48775 whole entry): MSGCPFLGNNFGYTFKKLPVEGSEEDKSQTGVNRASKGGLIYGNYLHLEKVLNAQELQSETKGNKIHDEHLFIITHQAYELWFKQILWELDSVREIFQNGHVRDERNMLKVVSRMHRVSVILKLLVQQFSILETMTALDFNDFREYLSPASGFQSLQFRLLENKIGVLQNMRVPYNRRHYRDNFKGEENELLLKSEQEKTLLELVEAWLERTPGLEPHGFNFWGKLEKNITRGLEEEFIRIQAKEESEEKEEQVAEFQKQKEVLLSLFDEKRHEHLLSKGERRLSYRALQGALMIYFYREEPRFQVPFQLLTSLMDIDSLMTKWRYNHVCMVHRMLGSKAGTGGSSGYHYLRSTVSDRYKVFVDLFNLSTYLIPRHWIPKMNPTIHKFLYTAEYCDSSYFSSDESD

One may read the IC50 as the concentration that gives 50% inhibition. Take `N#Cc1ccc2c(Nc3ccc(F)c(Cl)c3)c(N)oc2c1` [Compound 112, 2-Amino-3-((3-chloro-4-fluorophenyl)amino)benzofuran-6-carbonitrile]: the half-maximal inhibitory concentration (IC50) in assay [1] and in assay [2] was less than 200 nM in each case.

For the molecule `Cc1cccc(Nc2c(N)oc3cnccc23)c1` [Compound 48, N^3-(m-tolyl)Furo[2,3-c]pyridine-2,3-diamine], the IC50 in assay [1] and in assay [2] was less than 200 nM each time.

Regarding `COCCNC(=O)c1ccc(-c2nccc3c(Nc4ccc(F)c(Cl)c4)c(N)oc23)cc1` [Compound 169, 4-(2-Amino-3-((3-chloro-4-fluorophenyl)amino)furo[2,3-c]pyridin-7-yl)-N-(2-methoxyethyl)benzamide], the concentration for half-maximal inhibition (IC50) in assay [1] and in assay [2] was less than 200 nM throughout.

In the case of `Nc1oc2c(-c3ccc(Cl)cc3)nccc2c1Nc1ccc(F)c(Cl)c1` [Compound 91, N^3-(3-Chloro-4-fluorophenyl)-7-(4-chlorophenyl)furo[2,3-c]pyridine-2,3-diamine], the IC50 in assay [1] and in assay [2] was less than 200 nM in each case.

`C#Cc1cccc(Nc2c(N)oc3c(-c4ccccc4)nccc23)c1` [Compound 92, N^3-(3-Ethynylphenyl)-7-phenylfuro[2,3-c]pyridine-2,3-diamine]: the IC50 in assay [1] and in assay [2] was less than 200 nM in each case.

Take `N#Cc1cccc(Nc2c(N)oc3cnccc23)c1F` [Compound 28, 3-((2-Aminofuro[2,3-c]pyridin-3-yl)amino)-2-fluorobenzonitrile]: the IC50 in assay [3] is more than 2000 nM; in assay [2], more than 1000 nM.

`Nc1oc2cnccc2c1Nc1ccc(C(F)(F)F)cc1` [Compound 6, N^3-(4-(Trifluoromethyl)phenyl)furo[2,3-c]pyridine-2,3-diamine]: the IC50 in assay [3] is 500 to 2000 nM; in assay [2] it was more than 1000 nM.

Regarding `[NH]c1sc2ccc(Cl)cc2c1Nc1ccc(F)c(C(F)(F)F)c1` [Compound 129, hydrochloride], the half-maximal inhibitory concentration (IC50) in assay [3] was more than 2000 nM; in assay [2], 200 to 1000 nM.

For `Cc1ncc(CO)c2c(Nc3ccc(F)c(Cl)c3)c(N)oc12` [Compound 56, (2-amino-3-((3-chloro-4-fluorophenyl)amino)-7-methylfuro[2,3-c]pyridin-4-yl)methanol], the figures for the half-maximal inhibitory concentration (IC50) in assay [3] and in assay [2] were more than 2000 nM and more than 1000 nM, respectively.

Consider `CCOC(=O)Nc1oc2c(C#Cc3ccc(C(N)=O)cc3)nccc2c1N(C(=O)OCC)c1ccc(F)c(Cl)c1` [Compound 160, Ethyl (7-((4-carbamoylphenyl)ethynyl)-2-((ethoxycarbonyl)amino)furo[2,3-c]pyridin-3-yl)(3-chloro-4-fluorophenyl)carbamate], for which the results for the IC50 in assay [3] and in assay [2] were more than 2000 nM and more than 1000 nM, respectively.

Take `Nc1oc2cnccc2c1Nc1cncc(Cl)c1` [Compound 52, N^3-(5-Chloropyridin-3-yl)furo[2,3-c]pyridine-2,3-diamine]: the half-inhibitory concentration (IC50) in assay [3] was 500 to 2000 nM; in assay [2], more than 1000 nM.

Take `Nc1oc2cnccc2c1Nc1ccc(F)c(Cl)c1Cl` [Compound 45, N^3-(2,3-Dichloro-4-fluorophenyl)furo[2,3-c]pyridine-2,3-diamine]: the IC50 is more than 2000 nM in assay [3] and more than 1000 nM in assay [2].

Regarding `CCOC(=O)Nc1oc2c(C#N)nccc2c1N(C(=O)OCC)c1ccc(F)c(C(F)(F)F)c1` [Compound 194, Ethyl (7-cyano-2-((ethoxycarbonyl)amino)furo[2,3-c]pyridin-3-yl)(4-fluoro-3-(trifluoromethyl)phenyl)carbamate], the IC50 in assay [3] is more than 2000 nM; in assay [2], more than 1000 nM.

As to `CC(=O)c1ccc(Nc2c(N)oc3cnccc23)cc1` [Compound 41, 1-(4-((2-Aminofuro[2,3-c]pyridin-3-yl)amino)phenyl)ethanone], the figures for the IC50 in assay [3] and in assay [2] were 500 to 2000 nM and more than 1000 nM, respectively.

Turning to `Nc1oc2cnccc2c1Nc1cccc(CC2CCC2)c1` [Compound 89, N^3-(3-(Cyclobutylmethyl)phenyl)furo[2,3-c]pyridine-2,3-diamine], the half-maximal inhibitory concentration (IC50) is more than 2000 nM in assay [3] and more than 1000 nM in assay [2].

Consider `Nc1sc2ccccc2c1Oc1cccc(Cl)c1` [Compound 127, 3-(3-Chlorophenoxy)benzo[b]thiophen-2-amine hydrochloride], for which the concentration for half-maximal inhibition (IC50) in assay [3] is more than 2000 nM; in assay [2] it was more than 1000 nM.

In the case of `CCOC(=O)Nc1oc2c(Br)nccc2c1N(C(=O)OCC)c1ccc(F)c(Cl)c1` [Compound 161, Ethyl (7-bromo-2-((ethoxycarbonyl)amino)furo[2,3-c]pyridin-3-yl)(3-chloro-4-fluorophenyl)carbamate], the concentration for half-maximal inhibition (IC50) in assay [3] is more than 2000 nM; in assay [2], more than 1000 nM.

For `Cc1cc(-c2nccc3c(Nc4ccccc4N4CCCCC4)c(N)oc23)ccn1` [Compound 242, 7-(2-Methylpyridin-4-yl)-N^3-(2-(piperidin-1-yl)phenyl)furo[2,3-c]pyridine-2,3-diamine], the half-maximal inhibitory concentration (IC50) in assay [3] was more than 2000 nM; in assay [2] it was more than 1000 nM.

As to `Nc1oc2cnccc2c1Nc1ccc(F)cc1Cl` [Compound 30, N^3-(2-Chloro-4-fluorophenyl)furo[2,3-c]pyridine-2,3-diamine], the figures for the IC50 in assay [3] and in assay [2] were 500 to 2000 nM and more than 1000 nM, respectively.

As for `Nc1oc2cnccc2c1Nc1ccc(Oc2ccccc2)cc1` [Compound 29, N^3-(4-Phenoxyphenyl)furo[2,3-c]pyridine-2,3-diamine], the 50% inhibitory concentration (IC50) is more than 2000 nM in assay [3] and more than 1000 nM in assay [2].

As to `COC(=O)Nc1oc2cnccc2c1N(C(=O)OC)c1ccc(F)c(Cl)c1` [Compound 144, Methyl (3-chloro-4-fluorophenyl)(2-((methoxycarbonyl)amino)furo[2,3-c]pyridin-3-yl)carbamate], the results for the half-inhibitory concentration (IC50) in assay [3] and in assay [2] were more than 2000 nM and more than 1000 nM, respectively.

For the molecule `Nc1oc2cnccc2c1Nc1cccnc1` [Compound 49, N^3-(Pyridin-3-yl)furo[2,3-c]pyridine-2,3-diamine], the IC50 in assay [3] is 500 to 2000 nM; in assay [2], more than 1000 nM.

As for `COc1ccc(Nc2c(N)oc3cnccc23)c(OC)c1` [Compound 34, N^3-(2,4-Dimethoxyphenyl)furo[2,3-c]pyridine-2,3-diamine], the IC50 was more than 2000 nM in assay [3] and more than 1000 nM in assay [2].

As to `CCOC(=O)Nc1oc2cnccc2c1N(C(=O)OCC)c1ccc(F)c(Cl)c1` [Compound 142, Ethyl (3-chloro-4-fluorophenyl)(2-((ethoxycarbonyl)amino)furo-[2,3-c]pyridin-3-yl)carbamate], the values for the IC50 in assay [3] and in assay [2] were more than 2000 nM and more than 1000 nM, respectively.

As for `Nc1sc2ccccc2c1Sc1cccc(Cl)c1` [Compound 122, 3-((3-Chlorophenyl)thio)benzo[b]thiophen-2-amine], the IC50 in assay [3] is more than 2000 nM; in assay [2], more than 1000 nM.

For `Nc1oc2cnccc2c1Nc1ccc(N2CCOCC2)cc1` [Compound 11, N^3-(4-Morpholinophenyl)furo[2,3-c]pyridine-2,3-diamine], the half-maximal inhibitory concentration (IC50) in assay [3] is more than 2000 nM; in assay [2], more than 1000 nM.
